Results reported in patent publication US10294202B2, “Pyrrolidinones as herbicides” (FMC Corporation, priority 2013, dated 2019).

Columns and labels:
blackgrass = assay: Test A postemergence herbicide test; format: in vivo, Alopecurus myosuroides; conditions: for Plant response rating, Blackgrass: 125 g ai/ha, 0 to 100 scale, 0 no effect, 100 complete control; for Blackgrass plant response rating (0 to 100 scale, 0 is no effect, 100 is complete control): 500 g ai/ha
Summary of the method: (§1)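 Ratings compare treated with untreated plants roughly 10 days after a postemergence application made at the one- to two-leaf stage. Scoring uses 0–100, where 0 means no effect and 100 complete control.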

galium = assay: Test A postemergence herbicide test; format: in vivo, Galium aparine; conditions: for Plant response rating, Galium: 125 g ai/ha, 0 to 100 scale, 0 no effect, 100 complete control; for Galium plant response rating (0 to 100 scale, 0 is no effect, 100 is complete control): 500 g ai/ha
Summary of the method: as §1

corn = assay: Test A pre-/postemergence herbicide test; format: in vivo, Zea mays; conditions: Postemergence; for Plant response rating, Corn: 125 g ai/ha, 0 to 100 scale, 0 no effect, 100 complete control; for Corn plant response rating (0 to 100 scale, 0 is no effect, 100 is complete control): 500 g ai/ha
Summary of the method: (§2)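 Visual injury ratings, 0 = no effect, 100 = complete control, taken ~10 days after treatment against untreated greenhouse controls. Preemergence: directed soil spray onto seeded loam/sand pots. Postemergence: spray onto plants at one- to two-leaf stage, 2–10 cm tall.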

giant foxtail = assay: Test A pre-/postemergence herbicide test; format: in vivo, Setaria faberii; conditions: for Plant response rating, Foxtail, Giant: 0 to 100 scale
Summary of the method: as §2

rice = assay: Test B flooded paddy test; format: in vivo, Oryza sativa; conditions: 500 g ai/ha, Flood; scale of 0 to 100 where 0 is no effect and 100 is complete control
Summary of the method: (§3)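 2-leaf plants; flood 3 cm over soil; compound into paddy water; depth held. Greenhouse 13–15 d. Visual rating vs controls, 0 (no effect) to 100 (complete control); dash = not tested.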

ryegrass, Italian = assay: Test A pre-/postemergence herbicide test; format: in vivo, Lolium multiflorum; conditions: for Plant response rating, Ryegrass, Italian: 0 to 100 scale
Summary of the method: as §2

barnyardgrass [1] = assay: Test A pre-/postemergence herbicide test; format: in vivo, Echinochloa crus-galli
Summary of the method: as §2

ducksalad = assay: Test B flooded paddy test; format: in vivo, Heteranthera limosa; conditions: 500 g ai/ha, Flood; scale of 0 to 100 where 0 is no effect and 100 is complete control
Summary of the method: as §3

pigweed = assay: Test A pre-/postemergence herbicide test; format: in vivo, Amaranthus retroflexus; conditions: for Plant response rating, Pigweed: 0 to 100 scale
Summary of the method: as §2

wheat = assay: Test A pre-/postemergence herbicide test; format: in vivo, Triticum aestivum; conditions: Postemergence; for Plant response rating, Wheat: 125 g ai/ha, 0 to 100 scale, 0 no effect, 100 complete control; for Wheat plant response rating (0 to 100 scale, 0 is no effect, 100 is complete control): 500 g ai/ha
Summary of the method: as §2

sedge, umbrella = assay: Test B flooded paddy test; format: in vivo, Cyperus difformis; conditions: 500 g ai/ha, Flood; scale of 0 to 100 where 0 is no effect and 100 is complete control
Summary of the method: as §3

ragweed = assay: Test A pre-/postemergence herbicide test; format: in vivo, Ambrosia elatior; conditions: for Plant response rating, Ragweed: 0 to 100 scale
Summary of the method: as §2

kochia = assay: Test A pre-/postemergence herbicide test; format: in vivo, Kochia scoparia; conditions: for Plant response rating, Kochia: 0 to 100 scale
Summary of the method: as §2

barnyardgrass [2] = assay: Test B flooded paddy test; format: in vivo, Echinochloa crus-galli; conditions: 500 g ai/ha, Flood; scale of 0 to 100 where 0 is no effect and 100 is complete control
Summary of the method: as §3

[3] = 125 g ai/ha, visual rating, 0 no effect, 100 complete control, approximately 10 days, preemergence
[4] = Postemergence, 125 g ai/ha, 0 no effect, 100 complete control
[5] = 125 g ai/ha, visual rating, 0 to 100 scale, 0 no effect, 100 complete control, approximately 10 days, preemergence
[6] = Postemergence, 125 g ai/ha, 0 to 100 scale, 0 no effect, 100 complete control
[7] = preemergence, 500 g ai/ha, 0 to 100 scale (0 no effect, 100 complete control)

Row | Compound | Plant response rating, Blackgrass (blackgrass) | Blackgrass plant response rating (0 to 100 scale, 0 is no effect, 100 is complete control) (blackgrass) | Plant response rating, Galium (galium) | Galium plant response rating (0 to 100 scale, 0 is no effect, 100 is complete control) (galium) | Plant response rating, Corn (corn) | Corn plant response rating (0 to 100 scale, 0 is no effect, 100 is complete control) (corn) | Plant response rating, Foxtail, Giant (giant foxtail; [3]) | Plant response rating, Foxtail, Giant (giant foxtail; [4]) | Foxtail, Giant plant response rating (0 to 100 scale, 0 is no effect, 100 is complete control) (giant foxtail; Postemergence, 500 g ai/ha) | Plant response rating, Foxtail, Giant (giant foxtail; preemergence, 500 g ai/ha) | Plant response rating, Rice (rice) | Plant response rating, Ryegrass, Italian (ryegrass, Italian; [3]) | Plant response rating, Ryegrass, Italian (ryegrass, Italian; [4]) | Ryegrass, Italian plant response rating (0 to 100 scale, 0 is no effect, 100 is complete control) (ryegrass, Italian; Postemergence, 500 g ai/ha) | Plant response rating, Ryegrass, Italian (ryegrass, Italian; preemergence, 500 g ai/ha) | Plant response rating, Barnyardgrass (barnyardgrass [1]; [5]) | Plant response rating, Barnyardgrass (barnyardgrass [1]; [6]) | Barnyardgrass plant response rating (0 to 100 scale, 0 is no effect, 100 is complete control) (barnyardgrass [1]; Postemergence, 500 g ai/ha) | Plant response rating, Barnyardgrass (barnyardgrass [1]; [7]) | Plant response rating, Ducksalad (ducksalad) | also measured
1 | Cc1ccc(C2CNC(=O)C2C(=O)Nc2ccccc2Cl)cc1F (racemic) [Compound 148] | 0 | 0 | 0 | 40 | 0 | 0 | 40 | 20 | 30 | 90 | 0 | 0 | 0 | 0 | 0 | 30 | 50 | 90 | 90 | 100 | Plant response rating, Pigweed (pigweed; [3]): 0; Plant response rating, Pigweed (pigweed; [4]): 0; Pigweed plant response rating (0 to 100 scale, 0 is no effect, 100 is complete control) (pigweed; Postemergence, 500 g ai/ha): 0; Plant response rating, Pigweed (pigweed; preemergence, 500 g ai/ha): 0; Plant response rating, Wheat (wheat): 0; Wheat plant response rating (0 to 100 scale, 0 is no effect, 100 is complete control) (wheat): 0; Plant response rating, Sedge, Umbrella (sedge, umbrella): 0; Plant response rating, Ragweed (ragweed; [3]): 0; Plant response rating, Ragweed (ragweed; [4]): 0; Ragweed plant response rating (0 to 100 scale, 0 is no effect, 100 is complete control) (ragweed; Postemergence, 500 g ai/ha): 0; Plant response rating, Ragweed (ragweed; preemergence, 500 g ai/ha): 0; Plant response rating, Kochia (kochia; [3]): 30; Plant response rating, Kochia (kochia; [4]): 0; Kochia plant response rating (0 to 100 scale, 0 is no effect, 100 is complete control) (kochia; Postemergence, 500 g ai/ha): 0; Plant response rating, Kochia (kochia; preemergence, 500 g ai/ha): 30; Plant response rating, Barnyardgrass (barnyardgrass [2]): 40
2 | Cc1ccc(C2CNC(=O)C2C(=O)Nc2ccccc2F)cc1 (racemic) [Compound 149] | 30 | 40 | 50 | 60 | 10 | 70 | 70 | 40 | 70 | 90 | 0 | 20 | 10 | 50 | 70 | 90 | 70 | 80 | 90 | 100 | Plant response rating, Pigweed (pigweed; [3]): 0; Plant response rating, Pigweed (pigweed; [4]): 0; Pigweed plant response rating (0 to 100 scale, 0 is no effect, 100 is complete control) (pigweed; Postemergence, 500 g ai/ha): 0; Plant response rating, Pigweed (pigweed; preemergence, 500 g ai/ha): 0; Plant response rating, Wheat (wheat): 0; Wheat plant response rating (0 to 100 scale, 0 is no effect, 100 is complete control) (wheat): 20; Plant response rating, Sedge, Umbrella (sedge, umbrella): 0; Plant response rating, Ragweed (ragweed; [3]): 60; Plant response rating, Ragweed (ragweed; [4]): 30; Ragweed plant response rating (0 to 100 scale, 0 is no effect, 100 is complete control) (ragweed; Postemergence, 500 g ai/ha): 40; Plant response rating, Ragweed (ragweed; preemergence, 500 g ai/ha): 80; Plant response rating, Kochia (kochia; [3]): 10; Plant response rating, Kochia (kochia; [4]): 50; Kochia plant response rating (0 to 100 scale, 0 is no effect, 100 is complete control) (kochia; Postemergence, 500 g ai/ha): 60; Plant response rating, Kochia (kochia; preemergence, 500 g ai/ha): 70; Plant response rating, Barnyardgrass (barnyardgrass [2]): 70
3 | Cc1ccc(C2CNC(=O)C2C(=O)Nc2cccc(F)c2F)cc1 (racemic) [Compound 151] | 40 | 70 | 60 | 70 | 0 | 50 | 80 | 60 | 70 | 90 | 0 | 10 | 30 | 50 | 60 | 90 | 80 | 90 | 90 | 100 | Plant response rating, Pigweed (pigweed; [3]): 0; Plant response rating, Pigweed (pigweed; [4]): 50; Pigweed plant response rating (0 to 100 scale, 0 is no effect, 100 is complete control) (pigweed; Postemergence, 500 g ai/ha): 60; Plant response rating, Pigweed (pigweed; preemergence, 500 g ai/ha): 0; Plant response rating, Wheat (wheat): 0; Wheat plant response rating (0 to 100 scale, 0 is no effect, 100 is complete control) (wheat): 60; Plant response rating, Sedge, Umbrella (sedge, umbrella): 0; Plant response rating, Ragweed (ragweed; [3]): 90; Plant response rating, Ragweed (ragweed; [4]): 60; Ragweed plant response rating (0 to 100 scale, 0 is no effect, 100 is complete control) (ragweed; Postemergence, 500 g ai/ha): 70; Plant response rating, Ragweed (ragweed; preemergence, 500 g ai/ha): 90; Plant response rating, Kochia (kochia; [3]): 90; Plant response rating, Kochia (kochia; [4]): 70; Kochia plant response rating (0 to 100 scale, 0 is no effect, 100 is complete control) (kochia; Postemergence, 500 g ai/ha): 80; Plant response rating, Kochia (kochia; preemergence, 500 g ai/ha): 90; Plant response rating, Barnyardgrass (barnyardgrass [2]): 90
